# Assay results from patent US20100172854A1, “ANTIBACTERIAL FORMULATIONS” (priority 2007, published 2010).
# Assays:
# [1] = test system: S. epidermidis NCTC 11047; experiment: MBC assay; format: cell-based
# Description: (§1) The staphylococci were cultured and maintained on Mueller-Hinton Medium (agar and broth) at pH 7.2; cultures were incubated aerobically at 37° C. for 19-20 hours.
# (§2) This assay, normally carried out after an MIC assay, determines the minimum concentration of a compound that is lethal to the micro-organism being tested.
# (§3) These samples were then individually sub-cultured on antibiotic-free agar medium, under the incubation conditions described above. Following incubation they were examined visually for microbial growth.
# [2] = test system: S. saprophyticus NCTC 7292; experiment: MBC assay; format: cell-based
# Description: as §1, §2, §3
# [3] = test system: Staphylococcus aureus ATCC 12600; experiment: MBC assay; format: cell-based
# Description: as §1, §2, §3
# [4] = test system: Staphylococcus aureus ATCC 29213; experiment: MBC assay; format: cell-based; details: S. aureus ATCC 29213
# Description: as §1, §2, §3
# [5] = test system: Staphylococcus auricularis ATCC 33753; experiment: MBC assay; format: cell-based
# Description: as §1, §2, §3
# [6] = test system: Staphylococcus capitis ATCC 27840; experiment: MBC assay; format: cell-based
# Description: as §1, §2, §3
# [7] = test system: Staphylococcus cohnii ATCC 29974; experiment: MBC assay; format: cell-based
# Description: as §1, §2, §3
# [8] = test system: Staphylococcus haemolyticus ATCC 29970; experiment: MBC assay; format: cell-based
# Description: as §1, §2, §3
# [9] = test system: Staphylococcus hominis ATCC 27844; experiment: MBC assay; format: cell-based
# Description: as §1, §2, §3
# [10] = test system: Staphylococcus simulans ATCC 27848; experiment: MBC assay; format: cell-based
# Description: as §1, §2, §3
# [11] = test system: Staphylococcus warneri ATCC 27836; experiment: MBC assay; format: cell-based
# Description: as §1, §2, §3
# [12] = test system: Staphylococcus xylosus ATCC 29971; experiment: MBC assay; format: cell-based
# Description: as §1, §2, §3
# S. aureus ATCC 12600-U = experiment: MBC assay; format: cell-based, Staphylococcus aureus
# Description: as §1, §2, §3
# S. aureus ATCC 12601 = experiment: MBC assay; format: cell-based, Staphylococcus aureus
# Description: as §1, §2, §3
# S. aureus ATCC 12602 = experiment: MBC assay; format: cell-based, Staphylococcus aureus
# Description: as §1, §2, §3
# S. aureus ATCC 12604 = experiment: MBC assay; format: cell-based, Staphylococcus aureus
# Description: as §1, §2, §3
# S. aureus ATCC 12605 = experiment: MBC assay; format: cell-based, Staphylococcus aureus
# Description: as §1, §2, §3
# S. aureus ATCC 12606 = experiment: MBC assay; format: cell-based, Staphylococcus aureus
# Description: as §1, §2, §3
# S. aureus ATCC 12607 = experiment: MBC assay; format: cell-based, Staphylococcus aureus
# Description: as §1, §2, §3
# S. aureus ATCC 25923 = experiment: MBC assay; format: cell-based, Staphylococcus aureus
# Description: as §1, §2, §3
# S. aureus CPHL EMRSA 15 = experiment: MBC assay; format: cell-based, Staphylococcus aureus; details: resistance phenotype Met/β-lactams
# Description: as §1, §2, §3
# S. aureus CPHL EMRSA 16 = experiment: MBC assay; format: cell-based, Staphylococcus aureus; details: resistance phenotype Met/β-lactams
# Description: as §1, §2, §3
# S. aureus CPHL EMRSA 17 = experiment: MBC assay; format: cell-based, Staphylococcus aureus; details: resistance phenotype Met/β-lactams
# Description: as §1, §2, §3
# [13] = test system: S. aureus CPHL GISA HO41340156; experiment: MBC assay; format: cell-based, Staphylococcus aureus; details: resistance phenotype Van/Tec (intermediate)
# Description: as §1, §2, §3
# S. aureus CPHL VISA Mu3 = experiment: MBC assay; format: cell-based, Staphylococcus aureus; details: resistance phenotype Van (intermediate)
# Description: as §1, §2, §3
# S. aureus CPHL VISA Mu50 = experiment: MBC assay; format: cell-based, Staphylococcus aureus; details: resistance phenotype Van (intermediate)
# Description: as §1, §2, §3
# S. aureus NCTC 12493 = experiment: MBC assay; format: cell-based, Staphylococcus aureus
# Description: as §1, §2, §3
# S. aureus NCTC 12981 = experiment: MBC assay; format: cell-based, Staphylococcus aureus
# Description: as §1, §2, §3
# [14] = test system: Streptococcus mutans ATCC 25175; experiment: MBC assay; format: cell-based
# Description: (§4) The S. mutans strains were cultured and maintained on Wilkins-Chalgren Anaerobe Medium (agar and broth) at pH 7.0 supplemented with 1 g/L glucose; all cultures were incubated at 37° C. for 48 h in an atmosphere containing 5% CO2.
# as §2, §3
# [15] = test system: Streptococcus mutans ATCC 35668; experiment: MBC assay; format: cell-based
# Description: as §4, §2, §3
# a range of test bacteria = details: compound isolated from Aspergillus fumigatus, believed to be Antioxidant 2246; cited from earlier work
smiles,measurement,setting,value
"Cc1cc(Cc2cc(C)cc(C(C)(C)C)c2O)c(O)c(C(C)(C)C)c1 [AO 2246, 2,2′-methylene-bis(4-methyl-6-tert-butylphenol)]",MIC/MBC Ratio,[1],0.5
same,MBC,"[1]; Staphylococcus epidermidis, NCTC11047",7.8 µg/mL
same,MIC/MBC Ratio,[2],1
same,MBC,"[2]; Staphylococcus saprophyticus, NCTC7292",3.9 µg/mL
same,MIC/MBC Ratio,[3],0.06
same,MBC,[3]; ATCC12600,15.6 µg/mL
same,MIC/MBC Ratio,[4],0.5
same,MBC,"[4]; Staphylococcus aureus, ATCC29213",7.8 µg/mL
same,MIC/MBC Ratio,[5],0.5
same,MBC,[5]; ATCC33753,3.9 µg/mL
same,MIC/MBC Ratio,[6],0.25
same,MBC,[6]; ATCC27840,15.6 µg/mL
same,MIC/MBC Ratio,[7],1
same,MBC,[7]; ATCC29974,3.9 µg/mL
same,MIC/MBC Ratio,[8],1
same,MBC,[8]; ATCC29970,3.9 µg/mL
same,MIC/MBC Ratio,[9],0.25
same,MBC,[9]; ATCC27844,31.2 µg/mL
same,MIC/MBC Ratio,[10],0.5
same,MBC,[10]; ATCC27848,31.2 µg/mL
same,MIC/MBC Ratio,[11],<0.5
same,MBC,[11]; ATCC27836,> 31.2 µg/mL
same,MIC/MBC Ratio,[12],1
same,MBC,[12]; ATCC29971,3.9 µg/mL
same,MIC/MBC Ratio,S. aureus ATCC 12600-U,0.06
same,MBC,"S. aureus ATCC 12600-U; Staphylococcus aureus, ATCC12600",15.6 µg/mL
same,MIC/MBC Ratio,S. aureus ATCC 12601,1
same,MBC,"S. aureus ATCC 12601; Staphylococcus aureus, ATCC12601",1.95 µg/mL
same,MIC/MBC Ratio,S. aureus ATCC 12602,0.5
same,MBC,"S. aureus ATCC 12602; Staphylococcus aureus, ATCC12602",3.9 µg/mL
same,MIC/MBC Ratio,S. aureus ATCC 12604,0.5
same,MBC,"S. aureus ATCC 12604; Staphylococcus aureus, ATCC12604",3.9 µg/mL
same,MIC/MBC Ratio,S. aureus ATCC 12605,1
same,MBC,"S. aureus ATCC 12605; Staphylococcus aureus, ATCC12605",1.95 µg/mL
same,MIC/MBC Ratio,S. aureus ATCC 12606,0.5
same,MBC,"S. aureus ATCC 12606; Staphylococcus aureus, ATCC12606",3.9 µg/mL
same,MIC/MBC Ratio,S. aureus ATCC 12607,0.25
same,MBC,"S. aureus ATCC 12607; Staphylococcus aureus, ATCC12607",7.8 µg/mL
same,MIC/MBC Ratio,S. aureus ATCC 25923,1
same,MBC,"S. aureus ATCC 25923; Staphylococcus aureus, ATCC25923",7.8 µg/mL
same,MBC,S. aureus CPHL EMRSA 15; Staphylococcus aureus,7.8 µg/mL
same,MIC/MBC Ratio,S. aureus CPHL EMRSA 15,0.25
same,MBC,S. aureus CPHL EMRSA 16; Staphylococcus aureus,7.8 µg/mL
same,MIC/MBC Ratio,S. aureus CPHL EMRSA 16,0.25
same,MBC,S. aureus CPHL EMRSA 17; Staphylococcus aureus,7.8 µg/mL
same,MIC/MBC Ratio,S. aureus CPHL EMRSA 17,0.25
same,MBC,[13]; Staphylococcus aureus,3.9 µg/mL
same,MIC/MBC Ratio,[13],0.5
same,MBC,S. aureus CPHL VISA Mu3; Staphylococcus aureus,7.8 µg/mL
same,MIC/MBC Ratio,S. aureus CPHL VISA Mu3,0.25
same,MBC,S. aureus CPHL VISA Mu50; Staphylococcus aureus,15.6 µg/mL
same,MIC/MBC Ratio,S. aureus CPHL VISA Mu50,0.06
same,MIC/MBC Ratio,"S. aureus NCTC 12493; S. aureus NCTC 12493, resistance phenotype Met",0.5
same,MBC,"S. aureus NCTC 12493; Staphylococcus aureus, NCTC12493",1.95 µg/mL
same,MIC/MBC Ratio,S. aureus NCTC 12981,0.25
same,MBC,"S. aureus NCTC 12981; Staphylococcus aureus, NCTC12981",7.8 µg/mL
same,MIC/MBC Ratio,[14],0.5
same,MBC,[14]; ATCC25175,62.5 µg/mL
same,MIC/MBC Ratio,[15],0.25
same,MBC,[15]; ATCC35668,31.2 µg/mL
same,in vitro antimicrobial activity,a range of test bacteria,no in vitro antimicrobial activity
